Results from patent US7034016B2, “8-phenyl-6,9-dihydro-[1,2,4]triazolo[3,4-i]purin-5-one derivatives” (Almirall Prodesfarma, S.A., priority 1999, dated 2006).

molecular target: T1, cyclic GMP specific phosphodiesterase (PDE 5) (Homo sapiens, UniProt O76074); test: PDE 5 inhibitory activity (enzyme isolated from human platelet lysates, [3H]-cyclic GMP substrate); format: biochemical; settings: PDE 5 from human platelet lysates; 0.25 mM [3H]-cyclic GMP as substrate
T1 construct: isolated from human platelet lysates by ion exchange chromatography using a Mono-Q column; from tissue; host or cells: human platelets (lysate, Mono-Q ion exchange fraction)
Protocol: The cyclic GMP specific phosphodiesterase (PDE 5) was isolated from human platelet lysates by ion exchange chromatography using a Mono-Q column. The enzyme activity was determined using 0.25 mM [3H]-cyclic GMP as substrate. The purification of the enzyme and the assessment of the PDE 5 inhibitory activity of our compounds were performed essentially as described by Gristwood et al., Br. J. Pharmacol. 1992, 105, 985–991.

Molecule | IC50 [nM]
8-[5-(4-Methyl-[1,4]diazepane-1-sulfonyl)-2-propoxyphenyl]-6-propyl-6,9-dihydro-[1,2,4]triazolo[3,4-i]purin,5-one [Example 22] | 3.7
CCCOc1ccc(S(=O)(=O)N2CCN(C)CC2)cc1-c1nc2c([nH]1)c1nncn1c(=O)n2CC [Example 4, 6-Ethyl-8-[5-(4-methylpiperazine-1-sulphonyl)-2-propoxyphenyl]-6,9-dihydro-[1,2,4]triazolo[3,4-i]purin-5-one] | 11
CCCCOc1ccc(S(=O)(=O)N2CCN(C)CC2)cc1-c1nc2c([nH]1)c1nncn1c(=O)n2CC [Example 6] | 13
CCCOc1ccc(S(=O)(=O)Nc2ccncc2)cc1-c1nc2c([nH]1)c1nncn1c(=O)n2CCC [Example 17, 3-(5-Oxo-6-propyl-6,9-dihydro-5H-[1,2,4]triazolo[3,4-i]purin-8-yl)-4-propoxy-N-pyridin-4-yl-benzenesulphonamide] | 1.5
CCCOc1ccc(S(=O)(=O)N2CCN(C)CC2)cc1-c1nc2c([nH]1)c1nncn1c(=O)n2CCC [Example 18, 8-[5-(4-Methylpiperazinosulphonyl)-2-propoxyphenyl]-6-propyl-6,9-dihydro-[1,2,4]triazolo[3,4-i]purin-5-one] | 14
CCCOc1ccc(S(=O)(=O)N2CCN(CCO)CC2)cc1-c1nc2c([nH]1)c1nncn1c(=O)n2CCC [Example 27, 8-{5-[4-(2-Hydroxyethyl)piperazine-1-sulphonyl]-2-propoxyphenyl}-6-propyl-6,9-dihydro-[1,2,4]triazolo[3,4-i]purin-5-one] | 4
CCCCn1c(=O)n2cnnc2c2[nH]c(-c3cc(S(=O)(=O)N4CCN(CCO)CC4)ccc3OCCC)nc21 [Example 43, 6-Butyl-8-(2-propoxy-5-[4-(2-hydroxyethyl)piperazine-1-sulphonyl]phenyl}-6,9-dihydro[1,2,4]triazolo[3,4-i]purin-5-one] | 4
CCCOc1ccc(S(=O)(=O)N2CCN[C@@H](C)C2)cc1-c1nc2c([nH]1)c1nncn1c(=O)n2CCC [Example 86, 8-[5-((S)-3-Methylpiperazine-1-sulfonyl)-2-propoxyphenyl]-6-propyl-6,9-dihydro-[1,2,4]triazolo[3,4-i]purin-5-one] | 1.4
CCCOc1ccc(S(=O)(=O)N2C[C@@H]3C[C@H]2CN3C)cc1-c1nc2c([nH]1)c1nncn1c(=O)n2CCC [Example 89, 8-[5-((1S,4S)-5-Methyl-2,5-diazabicyclo[2.2.1]heptane-2-sulfonyl)-2-propoxyphenyl]-6-propyl-6,9-dihydro-[1,2,4]triazolo[3,4-i]purin-5-one] | 0.51
CCCOc1ccc(S(=O)(=O)N2CC(CN(C)C)C2)cc1-c1nc2c([nH]1)c1nncn1c(=O)n2CCC [Example 91, 8-[5-(3-Dimethylaminomethylazetidine-1-sulfonyl)-2-propoxyphenyl]-6-propyl-6,9-dihydro-[1,2,4]triazolo[3,4-i]purin-5-one] | 0.97
CCCOc1ccc(S(=O)(=O)N2C[C@@H](C)N[C@@H](C)C2)cc1-c1nc2c([nH]1)c1nncn1c(=O)n2CCC [Example 93, 8-[5-((3R,5S)-3,5-Dimethylpiperazine-1-sulfonyl)-2-propoxyphenyl]-6-propyl-6,9-dihydro-[1,2,4]triazolo[3,4-i]purin-5-one] | 0.85
CCCOc1ccc(S(=O)(=O)N2CCCN(CCO)CC2)cc1-c1nc2c([nH]1)c1nncn1c(=O)n2CCC [Example 105, 8-{5-[4-(2-Hydroxyethyl)-[1,4]diazepane-1-sulfonyl]-2-propoxyphenyl}-6-propyl-6,9-dihydro-[1,2,4]triazolo[3,4-i]purin-5-one] | 0.34
CCCOc1ccc(S(=O)(=O)N2CCN(C(C)(C)CO)CC2)cc1-c1nc2c([nH]1)c1nncn1c(=O)n2CCC [Example 108, 8-{5-[4-(2-Hydroxy-1,1-dimethylethyl)piperazine-1-sulfonyl]-2-propoxyphenyl}-6-propyl-6,9-dihydro-[1,2,4]triazolo[3,4-i]purin-5-one] | 1.6
CCCCn1c(=O)n2cnnc2c2[nH]c(-c3cc(S(=O)(=O)N4CCN(C(C)(C)CO)CC4)ccc3OCCC)nc21 [Example 138, 6-Butyl-8-{5-[4-(2-hydroxy-1,1-dimethylethyl)piperazine-1-sulfonyl]-2-propoxyphenyl}-6,9-dihydro-[1,2,4]triazolo[3,4-i]purin-5-one] | 0.84
N-(3-Dimethylamino-2,2-dimethylpropyl)-3-(oxopropyl-6,9-dihydro-5H-[1,2,4]triazolo[3,4-i]purin-8-yl)-4-propoxybenzenesulfonamide [Example 101] | 0.54
